Measured values from BindingDB's records for PubMed 7520908 (Janssen Research Foundation, 1994).
Several values for one entry are separate records, joined by “and”; a condition that tells them apart may be missing. Equal values may be shown once.

Columns and labels:
[1] = molecular target: 5-hydroxytryptamine receptor 1B (Rattus norvegicus, UniProt P28564)
[2] = molecular target: 5-hydroxytryptamine receptor 2A (Rattus norvegicus, UniProt P14842)
[3] = molecular target: 5-hydroxytryptamine receptor 1B (Homo sapiens, UniProt P28222)
Chain of 5-hydroxytryptamine receptor 1B (Homo sapiens, UniProt P28222) (P28222 whole entry): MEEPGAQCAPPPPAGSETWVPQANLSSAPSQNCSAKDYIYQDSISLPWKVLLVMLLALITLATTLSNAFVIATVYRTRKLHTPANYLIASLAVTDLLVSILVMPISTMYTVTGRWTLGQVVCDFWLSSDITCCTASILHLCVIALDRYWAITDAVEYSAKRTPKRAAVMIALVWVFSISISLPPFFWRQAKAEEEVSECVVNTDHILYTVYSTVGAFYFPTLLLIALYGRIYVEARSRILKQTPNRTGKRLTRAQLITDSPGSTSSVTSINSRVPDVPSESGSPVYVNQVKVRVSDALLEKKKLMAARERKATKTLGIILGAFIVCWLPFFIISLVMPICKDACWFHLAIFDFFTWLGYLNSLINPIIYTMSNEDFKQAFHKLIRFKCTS

D(2) dopamine receptor = D(2) dopamine receptor (Rattus norvegicus, UniProt P61169)
Chain of D(2) dopamine receptor (P61169 whole entry): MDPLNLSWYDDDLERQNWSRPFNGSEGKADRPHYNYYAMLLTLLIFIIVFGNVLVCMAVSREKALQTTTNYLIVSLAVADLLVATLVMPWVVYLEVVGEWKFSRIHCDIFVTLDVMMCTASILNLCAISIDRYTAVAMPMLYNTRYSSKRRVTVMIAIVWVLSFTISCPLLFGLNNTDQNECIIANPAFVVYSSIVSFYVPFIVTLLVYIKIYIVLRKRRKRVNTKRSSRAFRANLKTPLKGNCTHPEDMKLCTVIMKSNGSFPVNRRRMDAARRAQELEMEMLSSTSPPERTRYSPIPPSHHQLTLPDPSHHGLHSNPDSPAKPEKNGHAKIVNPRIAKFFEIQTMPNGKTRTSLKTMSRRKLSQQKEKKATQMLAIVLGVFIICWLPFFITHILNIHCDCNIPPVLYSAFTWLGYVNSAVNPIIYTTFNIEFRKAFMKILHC

[4] = molecular target: T1, 5-hydroxytryptamine receptor 3A (Mus musculus, UniProt P23979)
T1 sequence (P23979 whole entry): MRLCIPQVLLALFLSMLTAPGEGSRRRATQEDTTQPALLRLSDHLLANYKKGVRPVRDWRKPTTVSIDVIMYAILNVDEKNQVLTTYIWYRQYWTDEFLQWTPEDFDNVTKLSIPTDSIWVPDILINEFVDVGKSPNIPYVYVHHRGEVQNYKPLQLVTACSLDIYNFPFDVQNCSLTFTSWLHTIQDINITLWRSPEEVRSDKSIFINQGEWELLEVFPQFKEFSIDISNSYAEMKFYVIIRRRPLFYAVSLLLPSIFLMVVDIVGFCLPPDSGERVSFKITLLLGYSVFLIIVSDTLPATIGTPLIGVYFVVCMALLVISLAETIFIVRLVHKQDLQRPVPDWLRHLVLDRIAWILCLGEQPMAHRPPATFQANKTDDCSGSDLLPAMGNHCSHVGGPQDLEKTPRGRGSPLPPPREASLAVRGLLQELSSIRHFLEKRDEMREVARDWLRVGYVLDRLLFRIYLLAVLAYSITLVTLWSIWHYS

[5] = molecular target: 5-hydroxytryptamine 1D receptor (Bos taurus, UniProt Q8MI13)
Chain of 5-hydroxytryptamine 1D receptor (Q8MI13 whole entry): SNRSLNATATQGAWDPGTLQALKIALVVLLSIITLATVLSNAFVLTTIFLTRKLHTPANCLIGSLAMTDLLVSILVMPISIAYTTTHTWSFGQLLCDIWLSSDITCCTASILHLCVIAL

D(3) dopamine receptor = D(3) dopamine receptor (Rattus norvegicus, UniProt P19020)
Chain of D(3) dopamine receptor (P19020 whole entry): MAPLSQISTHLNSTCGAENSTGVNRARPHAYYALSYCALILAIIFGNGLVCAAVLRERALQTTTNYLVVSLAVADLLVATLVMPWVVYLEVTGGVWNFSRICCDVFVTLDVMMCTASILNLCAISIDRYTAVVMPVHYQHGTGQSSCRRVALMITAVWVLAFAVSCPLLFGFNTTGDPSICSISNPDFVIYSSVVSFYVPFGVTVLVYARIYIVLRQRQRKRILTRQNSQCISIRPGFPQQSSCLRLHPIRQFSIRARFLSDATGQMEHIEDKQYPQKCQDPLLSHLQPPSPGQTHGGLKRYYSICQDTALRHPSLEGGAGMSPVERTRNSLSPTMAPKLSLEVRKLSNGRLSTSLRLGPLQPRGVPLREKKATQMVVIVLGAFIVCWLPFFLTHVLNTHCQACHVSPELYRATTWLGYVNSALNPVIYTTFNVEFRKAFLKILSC

[6] = molecular target: T2, 5-hydroxytryptamine receptor 2C (Sus scrofa, UniProt G7ZKZ7)
T2 sequence (G7ZKZ7 whole entry): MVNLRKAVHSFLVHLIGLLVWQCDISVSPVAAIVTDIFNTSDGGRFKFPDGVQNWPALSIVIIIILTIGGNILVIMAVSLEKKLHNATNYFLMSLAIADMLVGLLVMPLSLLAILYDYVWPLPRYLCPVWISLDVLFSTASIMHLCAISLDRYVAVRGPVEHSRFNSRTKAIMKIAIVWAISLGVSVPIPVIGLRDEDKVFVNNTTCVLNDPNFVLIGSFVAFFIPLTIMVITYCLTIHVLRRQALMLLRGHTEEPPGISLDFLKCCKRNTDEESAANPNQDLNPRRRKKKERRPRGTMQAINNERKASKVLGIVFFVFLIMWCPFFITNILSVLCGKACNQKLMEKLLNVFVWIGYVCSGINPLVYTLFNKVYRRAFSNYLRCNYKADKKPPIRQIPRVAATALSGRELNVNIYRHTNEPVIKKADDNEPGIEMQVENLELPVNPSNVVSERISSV

D(1A) dopamine receptor = D(1A) dopamine receptor (Rattus norvegicus, UniProt P18901)
Chain of D(1A) dopamine receptor (P18901 whole entry): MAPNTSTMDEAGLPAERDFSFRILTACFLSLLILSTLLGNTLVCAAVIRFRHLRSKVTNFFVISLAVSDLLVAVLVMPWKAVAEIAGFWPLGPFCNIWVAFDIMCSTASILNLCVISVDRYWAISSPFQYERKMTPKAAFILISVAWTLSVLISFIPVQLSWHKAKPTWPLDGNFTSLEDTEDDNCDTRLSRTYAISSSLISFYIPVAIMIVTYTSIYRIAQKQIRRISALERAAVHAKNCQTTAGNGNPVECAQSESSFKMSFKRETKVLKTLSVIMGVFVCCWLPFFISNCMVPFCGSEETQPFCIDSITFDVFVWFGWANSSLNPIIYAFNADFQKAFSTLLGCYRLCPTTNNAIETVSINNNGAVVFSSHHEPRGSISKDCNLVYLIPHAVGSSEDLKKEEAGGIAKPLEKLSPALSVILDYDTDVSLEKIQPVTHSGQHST

Chain of 5-hydroxytryptamine receptor 1B (Rattus norvegicus, UniProt P28564) (P28564 whole entry): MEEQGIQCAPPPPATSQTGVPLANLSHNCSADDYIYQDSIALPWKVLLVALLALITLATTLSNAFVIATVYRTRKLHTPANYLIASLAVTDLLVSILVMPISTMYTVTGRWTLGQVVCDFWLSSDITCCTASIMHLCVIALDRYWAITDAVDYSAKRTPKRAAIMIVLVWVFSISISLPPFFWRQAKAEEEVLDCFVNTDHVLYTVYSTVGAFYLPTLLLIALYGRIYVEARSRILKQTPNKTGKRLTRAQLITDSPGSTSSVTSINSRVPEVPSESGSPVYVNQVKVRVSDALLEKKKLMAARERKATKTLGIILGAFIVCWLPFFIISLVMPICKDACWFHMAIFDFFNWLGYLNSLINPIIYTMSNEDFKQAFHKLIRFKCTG
Chain of 5-hydroxytryptamine receptor 2A (P14842 whole entry): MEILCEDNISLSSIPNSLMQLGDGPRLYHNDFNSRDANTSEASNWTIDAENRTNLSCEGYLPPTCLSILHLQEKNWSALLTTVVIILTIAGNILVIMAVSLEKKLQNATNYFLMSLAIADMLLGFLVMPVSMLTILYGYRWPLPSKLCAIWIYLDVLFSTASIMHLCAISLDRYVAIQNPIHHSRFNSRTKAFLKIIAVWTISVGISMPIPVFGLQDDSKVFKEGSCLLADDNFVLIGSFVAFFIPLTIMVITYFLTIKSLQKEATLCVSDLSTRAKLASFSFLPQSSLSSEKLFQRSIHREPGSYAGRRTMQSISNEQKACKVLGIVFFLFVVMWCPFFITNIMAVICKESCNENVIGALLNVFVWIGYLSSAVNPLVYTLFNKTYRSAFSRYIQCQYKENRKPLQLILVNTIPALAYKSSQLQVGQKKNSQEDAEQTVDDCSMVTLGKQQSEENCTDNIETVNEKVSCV

Cc1nc2n(c(=O)c1CCN1CCC(c3noc4cc(F)ccc34)CC1)CCCC2 [3-{2-[4-(6-Fluoro-benzo[d]isoxazol-3-yl)-piperidin-1-yl]-ethyl}-2-methyl-6,7,8,9-tetrahydro-pyrido[1,2-a]pyrimidin-4-one(risperidone)]
Ki [1]: 4 µM

Cc1nc2n(c(=O)c1CCN1CCC(c3noc4cc(F)ccc34)CC1)CCCC2O (stereo not given) [9-OH-risperidone]
Ki [2]: 0.00022 µM | Ki [3]: 0.023 µM | Ki (D(2) dopamine receptor): 0.0035 µM and 0.0039 µM and 0.0067 µM and 0.0046 µM | Ki [4]: > 10 µM | Ki [5]: 0.117 µM | Ki [1]: 3.5 µM | Ki (D(3) dopamine receptor): 0.013 µM | Ki [6]: 0.047 µM | Ki (D(1A) dopamine receptor): 0.51 µM
